In US20210283163A1, “COMPOSITIONS AND METHODS FOR THE TREATMENT OF ACUTE AND CHRONIC PRURITIS” (Duke University, priority 2018, published 2021):

Columns and labels:
[1] = biological target: T1, TRPV4 (Mus musculus, UniProt Q9EPK8); assay: Whole-cell patch clamp in CHO cells transfected with mouse Trpv4 cDNA; type: cell-based; settings: miR-711 10 μM; GSK1016790A 1 μM
T1 construct: expressed in transfected cells; host or cells: CHO cells (ATCC CRL-9096), plasmid pcDNA3.1-mTrpv4, a gift from Korea University
Experimental: Constructs. The cDNAs of mouse pcDNA3.1-Trpa1, pcDNA3.1-Trpv1, pcDNA3.1-Trpv2, pcDNA3.1-Trpv3, and pcDNA3.1-Trpv4 were kindly provided Dr. Sun Work Hwang from Korea University. Mouse Trpa1 cDNA was subcloned into pCGN-HA backbone (Addgene) using In-Fusion HD Cloning Kit (Clontech Laboratories, CA). Q5 Site-Directed Mutagenesis Kit was used to generate mTrpa1 mutant (M1-M13) based on pCGN-mTrpa1.
Cell Culture and Transfection. CD4^+ Myla cell line was cultured in RPMI 1640 media (GIBCO), supplemented with 2 mM Glutamine (GIBCO), 100 U/mL IL-2 (Sigma), 100 U/mL IL-4 (Sigma), and 10% human AB serum (Sigma). HuT 102 cell line was cultured in RPMI 1640 supplemented with pyruvate, HEPES, and 10% (v/v) fetal bovine serum (HyClone). HEK293-hTRPA1 stable cell line was cultured in MEM (GIBCO) containing 2 mM Glutamine, 4 μg/mL Blasticidin, 10% FBS (v/v). B16 and CHO cells were cultured in high glucose (4.5 g/L) Dulbecco's Modified Eagle's Medium (GIBCO) containing 10% (v/v) fetal bovine serum (GIBCO). Culture media were supplemented with 50 units/mL of penicillin and 50 μg/mL streptomycin, and cultures were maintained with 5% CO2 in 37° C. incubator. Transfection (2 μg cDNA) was performed with Lipofectamine™ 2000 Reagent (Invitrogen) at 80% confluency and the transfected cells were cultured in the same media for 48 hr before electrophysiological and biochemical studies. […]

[2] = biological target: T2, hTRPA1 (Homo sapiens, UniProt O75762); assay: RNA pull-down assay and immunoblotting; type: binding; settings: RNA pull-down
Experimental: RNA Pull-Down Assay and Immunoblotting. hTRPA1-expressing HEK293 cells of equal amount (5×10^6) were plated onto 60 mm dishes, and 24 hr later, these cells were incubated with biotin-conjugated miR-711 or miR-711 (m6) in extracellular solution containing 140 mM NaCl, 5 mM KCl, 2 mM CaCl2, 1 mM MgCl2, 10 mM HEPES, and 10 mM glucose, adjusted to pH 7.4 for 15 min at 37° C. with 5% CO2. For crosslinking, 1% formaldehyde (vol/vol) was added at 37° C. for 10 min, then 12.5% glycine was applied to stop crosslinking by 5 min incubation at room temperature. Then the cells were collected and sonicated with ultrosonic probe sonicator (80% output, 5 s on and 10 s off) in 1 mL lysis buffer (1% Triton X-100, 50 mM Tris-HCl, 150 mM NaCl, 5 mM EDTA, pH7.4) on ice for 2 min. We then centrifuged the lysate at 13,000 rpm for 10 min at 4° C. and took 50 μL supernatant as lysate control. The remaining supernatant was added 20 μL streptadvilin agrose beads and incubated overnight. The pellets were collected after centrifuge at 6000 rmp for 30 s. For competing assay, miR-711 (10-50 μM) or mutant miR-711 (m6, 10-50 μM) were added 15 min before the incubation with biotin-conjugated miR-711 (10 μM). For immunoblotting, the lysates or beads were incubated in SDS-PAGE loading buffer for 30 min at 50° C., and supernatant was collected after centrifugation at 13000 rpm and decrosslink at 99° C. for 20 min. The samples were separated on an SDS-PAGE gel, transferred, and probed with TRPA1 antibody (1:1000; Alomone labs). The immunoreactive bands were detected with horseradish peroxidase-conjugated secondary antibody, visualized with enhanced chemiluminescence (Thermo scientific, Pittsburgh, Pa.), and quantified with Image-Pro Plus software (Media Cybernetics, Bethesda, Md.). Each experiment was repeated at least three times.

[3] = biological target: T2, hTRPA1; assay: Whole-cell patch clamp, inward currents in HEK293 cells expressing hTRPA1; type: cell-based; settings: peptide 25 μM
Experimental: Cell Culture and Transfection. CD4^+ Myla cell line was cultured in RPMI 1640 media (GIBCO), supplemented with 2 mM Glutamine (GIBCO), 100 U/mL IL-2 (Sigma), 100 U/mL IL-4 (Sigma), and 10% human AB serum (Sigma). HuT 102 cell line was cultured in RPMI 1640 supplemented with pyruvate, HEPES, and 10% (v/v) fetal bovine serum (HyClone). HEK293-hTRPA1 stable cell line was cultured in MEM (GIBCO) containing 2 mM Glutamine, 4 μg/mL Blasticidin, 10% FBS (v/v). B16 and CHO cells were cultured in high glucose (4.5 g/L) Dulbecco's Modified Eagle's Medium (GIBCO) containing 10% (v/v) fetal bovine serum (GIBCO). Culture media were supplemented with 50 units/mL of penicillin and 50 μg/mL streptomycin, and cultures were maintained with 5% CO2 in 37° C. incubator. Transfection (2 μg cDNA) was performed with Lipofectamine™ 2000 Reagent (Invitrogen) at 80% confluency and the transfected cells were cultured in the same media for 48 hr before electrophysiological and biochemical studies.
Whole-Cell Patch Clamp Recordings in HEK293 Cells, CHO Cells, and DRG Neurons. Whole-cell patch clamp recordings were performed at room temperature using an Axopatch-200B amplifier (Axon Instruments) with a Digidata 1440B (Axon Instruments). In this study, we only examined small-diameter mouse DRG neurons (<25 μM) and small-diameter human DRG neurons (<55 μM). The patch pipettes were pulled from borosilicate capillaries (World Precision Instruments) using a P-97 Flaming/Brown micropipette puller (Sutter Instrument). Pipette resistance was 4-6 MΩ for whole-cell and outside-out recording. For inward current recordings in mouse and human DRG neurons, HEK293 cells, and CHO cells, the internal solution contains (in mM): 140 CsCl, 10 EGTA, 10 HEPES, and 2 Mg-ATP, adjusted to pH 7.3 with CsOH. Whole cell recordings were performed in an extracellular solution that contains (in mM): 140 NaCl, 5 KCl, 2 MgCl2, 10 HEPES, and 10 glucose, adjusted to pH 7.4 with NaOH and osmolarity to 300-310 mOsm. […] Action potential recordings were performed in small-diameter DRG neurons, with the following solutions: i) internal pipette solution contains: 126 mM K-gluconate, 10 mM NaCl, 1 mM MgCl2, 10 mM EGTA, 10 mM HEPES and 2 mM Na-ATP, adjusted to pH 7.4 with KOH and osmolarity to 295-300 mOsm), and ii) extracellular solution contains: 140 mM NaCl, 5 mM KCl, 2 mM MgCl2, 2 mM CaCl2, 10 mM HEPES, 10 mM glucose, adjusted to pH 7.4 with KOH.

[4] = system: mice; assay: Acute pruritus induced by intradermal pruritogens, effect of peptides; type: in vivo, mouse; settings: peptide 2 mM, 15 μL intradermal; mmu-miR-711 1 mM, 10 μL
Experimental: (§1) Behavioral Assessment for Scratching (Itch) and Wiping (Pain). Mice were shaved on the cheek or nape after a brief anesthesia with isoflurane. Before experiments, mice were habituated in small plastic chambers (14×18×12 cm) daily for two days. The room temperature and humidity remained stable for all the experiments. […] After the injection, the number of scratches in 60 min was counted. A scratch was counted when a mouse lifted its hind paw to scratch the shaved region and returned the paw to the floor or to the mouth. A bout of wiping was defined as a continuous wiping movement with a forepaw directing at the area of the injection area (Shimada and LaMotte, Pain 2008, 139, 681-687). Scratching and wiping behavior was videoed for 30 min or 60 min using Sony HDR-CX610 camera. The video was subsequently played back offline and the numbers of scratches and wipes were quantified in a blinded manner.

[5] = system: human DRG neurons; assay: Whole-cell patch clamp, inward currents in human DRG neurons; type: cell-based; settings: 10 μM; small diameters
Experimental: Non-diseased human DRGs were obtained from donors through National Disease Research Interchange (NDRI) with permission of exemption from the Duke University Institutional Review Board (IRB). Postmortem L3-L5 DRGs were dissected from 4 donors and delivered in ice cold culture medium to the laboratory at Duke University within 24-72 hr of the donor's death. Upon the delivery, DRGs were rapidly dissected from nerve roots and minced in a calcium-free HBSS (GIBCO). Human DRG cultures were prepared as previously reported (Chang et al., Neurosci. Bull. 2018, 34, 4-12; Han et al., Neuron 2016, 92, 1279-1293). DRGs were digested at 37° C. in a humidified CO2 incubator for 120 min with collagenase Type II (Worthington, 290 units/mg, 12 mg/mL final concentration) and dispase II (Roche, 1 unit/mg, 20 mg/mL) in PBS with 10 mM HEPES, pH adjusted to 7.4 with NaOH. DRGs were mechanically dissociated using fire-polished pipettes, filtered through a 100 μm nylon mesh and centrifuged (500 g for 5 min). The pellet was resuspended, plated on 0.5 mg/mL poly-D-lysine-coated glass coverslips, and grown in Neurobasal medium supplemented with 10% FBS, 2% B-27 supplement, and 1% penicillin/streptomycin. Whole-cell patch-clamp recordings in small (<[…]) human DRG neurons were conducted at room temperature using patch pipettes with resistances of 3-4 MΩ.
Whole-Cell Patch Clamp Recordings in HEK293 Cells, CHO Cells, and DRG Neurons. Whole-cell patch clamp recordings were performed at room temperature using an Axopatch-200B amplifier (Axon Instruments) with a Digidata 1440B (Axon Instruments). In this study, we only examined small-diameter mouse DRG neurons (<25 μM) and small-diameter human DRG neurons (<55 μM). The patch pipettes were pulled from borosilicate capillaries (World Precision Instruments) using a P-97 Flaming/Brown micropipette puller (Sutter Instrument). Pipette resistance was 4-6 MΩ for whole-cell and outside-out recording. […]

[6] = system: naive mice; type: in vivo, mouse; settings: naive mice; 1 mM, 5 μL
Experimental: as §1

[7] = system: CTCL mice; assay: Mouse CTCL xenograft model of chronic itch; type: in vivo; settings: given 20 days after Myla cell inoculation; hsa-miR-711 inhibitor 100 μM, HC030031 200 μM, A967079 50 μM, peptides 2 mM
Experimental: Mouse CTCL Xenograft Model of Chronic Itch. We developed a murine xenograft model of cutaneous T cell lymphoma (CTCL) using immune-deficient mice (NOD.CB17-Prkdcscid, 8-10 weeks old, male). CD4^+ MyLa cell line was purchased from Sigma (Ca #95051032). The cell line was established from a plaque biopsy of a person with mycosis fungoides stage II by inclusion of IL-2 and IL-4 in the culture medium. CTCL was generated via intradermal injection of CD4^+ Myla cells (1×10^5 cells/μl, 100 μL) on the nape of the neck. Tumor growth was assessed for 40 days by measurements of tumor diameters.
as §1
Generation of Myla Stable Cell Line Expressing miR-711 Inhibitor. CD4^+ Myla cells were plated at a density of 2×10^5 cells/mL in 2 mL culture media in 6-well plates. For each well, 20 μL of the MISSION Lenti microRNA Inhibitor (hsa-miR-711) lentivirus (Sigma) with a titer of 2.6×10^7 Tu/mL were added. Cell mixtures were incubated at 37° C. for 48 hr, washed with PBS three times, and re-suspended in fresh culture media, and 24 hr later, 1 μg/mL puromycin was added to the cells to select stably transduced cell populations. We tried to grow and passage the cells as much as necessary (usually 3 days) and maintained selection pressure by keeping 1 μg/mL puromycin in the medium. After 4 weeks, a large number of the cells were killed; the remaining cells retained the expression of the plasmid, which stably integrates into the genome of the targeted cells. These cells were used for inoculation to generate the CTCL model for testing the effects of miR-711 inhibitor on chronic itch and tumor growth.

[8] = system: mice; assay: Persistent itch after intradermal adenovirus (AV) overexpression of hsa-miR-711; type: in vivo, mouse; settings: 10 days after the AV injection, A-967079 50 μM, hsa-miR-711 inhibitor 100 μM, blocking peptide 2 μM
Experimental: as §1
miRNA Measurement by Quantitative Real-Time RT-PCR (qPCR). Total RNA was isolated from serum of CTCL mice or adenovirus-treated mice using Qiazol Lysis Reagent (QIAGEN) together with miRNeasy Serum/Plasma Kit (Park et al., Neuron 2014, 82, 47-54). All RNA samples were immediately used or kept at −80° C. until further processing. To convert mature miRNA into cDNA, 6 μl of total RNA solution were reverse transcribed using the miScript II RT Kit (including polyadenylation of miRNAs and reverse transcription using an oligo-dT that binds to a universal RT-sequence). Specific miRNA levels were quantified by qPCR using miScript SYBR Green Kit including miScript miRNA assay for hsa-miR-711, hsa-miR21, hsamiR155, and hsa-miR-326, together with the universal RT primer, according to the manufacturer's protocol (CFX96 Real-Time system, Bio-Rad). Relative quantities of miRNAs were calculated using the Ct value after normalization to control miRNAs. Caenorhabditis elegans miRNA-39 (cel-miRNA-39) was included as spiked-in control for extracellular miRNA.

T2 sequence (O75762 whole entry): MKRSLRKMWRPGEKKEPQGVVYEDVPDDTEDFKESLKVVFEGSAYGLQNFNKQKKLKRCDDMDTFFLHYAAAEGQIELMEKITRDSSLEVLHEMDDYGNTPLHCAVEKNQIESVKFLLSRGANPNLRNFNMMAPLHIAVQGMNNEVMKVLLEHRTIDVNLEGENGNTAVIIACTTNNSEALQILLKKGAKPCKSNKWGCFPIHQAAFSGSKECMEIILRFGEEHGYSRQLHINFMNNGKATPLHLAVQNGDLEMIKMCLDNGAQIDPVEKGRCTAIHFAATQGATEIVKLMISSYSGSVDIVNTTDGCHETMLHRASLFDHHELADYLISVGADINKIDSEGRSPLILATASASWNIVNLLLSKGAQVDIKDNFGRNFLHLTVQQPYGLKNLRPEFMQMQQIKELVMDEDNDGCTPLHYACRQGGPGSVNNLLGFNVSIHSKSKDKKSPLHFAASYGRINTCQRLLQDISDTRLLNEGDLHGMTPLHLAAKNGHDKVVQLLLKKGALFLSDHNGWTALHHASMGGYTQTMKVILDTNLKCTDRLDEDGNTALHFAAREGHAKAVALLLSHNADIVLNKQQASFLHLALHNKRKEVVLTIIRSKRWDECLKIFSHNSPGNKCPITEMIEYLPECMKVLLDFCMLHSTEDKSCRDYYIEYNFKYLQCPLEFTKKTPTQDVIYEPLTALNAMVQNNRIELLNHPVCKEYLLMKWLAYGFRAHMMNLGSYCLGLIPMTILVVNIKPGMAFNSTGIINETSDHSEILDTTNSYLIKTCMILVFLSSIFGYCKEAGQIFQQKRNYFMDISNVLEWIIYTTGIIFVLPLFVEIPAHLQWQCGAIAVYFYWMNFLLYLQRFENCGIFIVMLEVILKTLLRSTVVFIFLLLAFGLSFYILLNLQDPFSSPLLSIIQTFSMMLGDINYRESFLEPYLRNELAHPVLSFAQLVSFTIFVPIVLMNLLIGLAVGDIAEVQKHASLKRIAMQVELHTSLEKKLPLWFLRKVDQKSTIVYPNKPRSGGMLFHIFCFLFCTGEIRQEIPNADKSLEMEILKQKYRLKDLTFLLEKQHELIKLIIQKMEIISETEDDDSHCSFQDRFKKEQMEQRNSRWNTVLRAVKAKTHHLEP
T1 sequence (Q9EPK8 whole entry): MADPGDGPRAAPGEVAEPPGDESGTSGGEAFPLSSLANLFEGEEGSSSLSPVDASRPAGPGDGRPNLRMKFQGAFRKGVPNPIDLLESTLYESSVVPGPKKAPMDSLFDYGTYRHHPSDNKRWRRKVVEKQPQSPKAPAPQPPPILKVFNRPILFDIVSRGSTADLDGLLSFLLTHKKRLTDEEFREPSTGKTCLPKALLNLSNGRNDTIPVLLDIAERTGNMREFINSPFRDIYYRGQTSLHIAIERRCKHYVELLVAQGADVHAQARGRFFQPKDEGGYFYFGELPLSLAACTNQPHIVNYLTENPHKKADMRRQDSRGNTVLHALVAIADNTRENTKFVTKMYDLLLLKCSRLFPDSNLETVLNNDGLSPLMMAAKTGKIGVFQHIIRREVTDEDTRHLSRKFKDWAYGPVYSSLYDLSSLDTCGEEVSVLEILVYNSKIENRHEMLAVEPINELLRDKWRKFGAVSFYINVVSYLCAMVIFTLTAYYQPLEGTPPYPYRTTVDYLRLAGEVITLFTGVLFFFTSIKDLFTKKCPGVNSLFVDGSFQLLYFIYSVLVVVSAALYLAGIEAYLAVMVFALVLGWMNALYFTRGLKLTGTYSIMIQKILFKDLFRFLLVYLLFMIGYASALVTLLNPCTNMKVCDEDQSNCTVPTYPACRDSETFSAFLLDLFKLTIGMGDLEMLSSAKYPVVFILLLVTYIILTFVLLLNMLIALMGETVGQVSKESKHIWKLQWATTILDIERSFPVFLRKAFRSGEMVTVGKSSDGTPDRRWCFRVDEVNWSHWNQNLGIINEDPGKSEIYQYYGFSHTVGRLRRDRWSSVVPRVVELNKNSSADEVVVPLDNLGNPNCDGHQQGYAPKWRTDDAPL

Compound	inward currents in human DRG neurons [5]	scratching (itch) after intradermal cheek injection [6]	wiping (pain) after intradermal cheek injection [6]	other results
CC(C)C[C@H](NC(=O)c1cc2ccccc2s1)C(=O)N1CCN(C(=O)[C@H](CO)NS(=O)(=O)c2ccc(Cl)cc2Cl)CC1 [GSK1016790A]				inward currents [1]: inward currents induced
NH2-FRNELAAAVATFGQL-COOH (H-FRNELAAAVATFGQL-OH) [mutated peptide]				disruption of the miR-711/TRPA1 interaction [2]: Neither did this mutated peptide block; inhibition of miR-711-induced TRPA1 inward currents [3]: nor did this peptide inhibit; effect on miR-711-induced pruritus [4]: nor did this peptide inhibit
hsa-miR-642b-3p: hsa-miR-642b-3p: agacacauuuggagagggaccc (SEQ ID NO: 10) (AGACACAUUUGGAGAGGGACCC; listed as RNA, chemistry not given here)	induced similar inward currents	resulted in pruritus	failed to elicit wiping	
hsa-miR-711: hsa-miR-711: gggacccagggagagagacguaag (SEQ ID NO: 9) (GGGACCCAGGGAGAGAGACGUAAG; listed as RNA, chemistry not given here)	evoked TRPA1-dependent inward currents	able to evoke pruritus	failed to elicit wiping	
miR-711 inhibitor: hsa-miR-711 inhibitor with a complementary sequence to hsa-miR-711: cuuacgucucucccuggguccc (SEQ ID NO: 22) (CUUACGUCUCUCCCUGGGUCCC; listed as RNA, chemistry not given here)				effect on CTCL-evoked chronic itch [7]: reduced chronic pruritus; effect on hsa-miR-711 AV-induced persistent itch [8]: Inhibition
